From patent publication US20160194299A1 (priority 2013, published 2016)
In brackets after ≈: the same amount, converted by molar mass. Read-outs that look alike come from different tables or passages of the source.

Assays:
[1] = biological target: M. smegmatis DprE1 (DprE1/DprE2 epimerase) (Mycolicibacterium smegmatis, UniProt A0R607); format: biochemical
[2] = system: Mtb in J744.1 murine macrophage cells; assay: microbe, parasite or virus in culture; format: cell-based; conditions: Mycobacterium tuberculosis, 120 h, read-out: MIC50, intracellular CFU assay
[3] = in vitro; conditions: African green monkey
[4] = system: Mtb; assay: microbe, parasite or virus in culture; format: cell-based, Mycobacterium tuberculosis; conditions: Mycobacterium tuberculosis, read-out: MIC (III)
[5] = in vitro; conditions: human
[6] = system: Mtb; assay: microbe, parasite or virus in culture; format: cell-based, Mycobacterium tuberculosis; conditions: Mycobacterium tuberculosis, read-out: MIC (I)
[7] = system: Mtb; assay: microbe, parasite or virus in culture; format: cell-based, Mycobacterium tuberculosis; conditions: Mycobacterium tuberculosis, read-out: MIC (II)
[8] = system: exponentially growing virulent Mtb; format: cell-based, Mycobacterium tuberculosis

Sequence of M. smegmatis DprE1 (DprE1/DprE2 epimerase) (A0R607 whole entry): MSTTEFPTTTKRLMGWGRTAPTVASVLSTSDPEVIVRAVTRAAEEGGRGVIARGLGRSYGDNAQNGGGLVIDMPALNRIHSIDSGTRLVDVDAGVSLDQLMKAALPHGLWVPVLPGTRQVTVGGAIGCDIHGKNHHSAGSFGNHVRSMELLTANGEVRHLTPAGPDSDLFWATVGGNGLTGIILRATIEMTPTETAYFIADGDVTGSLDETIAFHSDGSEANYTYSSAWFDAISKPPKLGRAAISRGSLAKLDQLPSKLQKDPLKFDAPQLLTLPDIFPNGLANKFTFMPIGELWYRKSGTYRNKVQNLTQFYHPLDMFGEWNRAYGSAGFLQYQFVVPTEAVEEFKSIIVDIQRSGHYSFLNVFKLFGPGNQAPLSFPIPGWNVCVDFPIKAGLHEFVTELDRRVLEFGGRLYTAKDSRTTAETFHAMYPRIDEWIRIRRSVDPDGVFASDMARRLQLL

| Structure (SMILES) | inhibition of conversion of DPR to DPA by DprE1 [1] | MIC50 [2] | CC50 [3] | MIC [4] | CC50 [5] | MIC [6] | MIC [7] | drop in CFU compared with TCA1 [8] |
| --- | --- | --- | --- | --- | --- | --- | --- | --- |
| C[C@H]1COC2(CCN(c3nc(=O)c4cc(C(F)(F)F)cc([N+](=O)[O-])c4s3)CC2)O1 [BTZ043] | potently inhibit | – | – | – | – | – | – | – |
| CO[C@H]1/C=C/O[C@@]2(C)Oc3c(C)c(O)c4c(O)c(c(/C=N/N5CCN(C)CC5)c(O)c4c3C2=O)NC(=O)/C(C)=C\C=C\[C@H](C)[C@H](O)[C@@H](C)[C@@H](O)[C@@H](C)[C@H](OC(C)=O)[C@@H]1C [RIF, rifampicin] | – | 2.7 µg/mL (≈ 3.28 µM) | – | – | – | – | – | – |
| CCOC(=O)NC(=O)c1ccsc1NC(=O)c1ccnc(NC(=O)OC)c1 [Compound 61] | – | – | > 50 µg/mL | 5 to 25 µg/mL (≈ 12.7 to 63.7 µM) | 25 to 50 µg/mL (≈ 63.7 to 127 µM) | 1 to 3 µg/mL (≈ 2.55 to 7.65 µM) | < 1 µg/mL | – |
| CCOC(=O)NC(=O)c1ccsc1NC(=O)c1ccnc(NC(=O)C(C)(C)C)c1 [Compound 60] | – | – | > 50 µg/mL | > 25 µg/mL | > 50 µg/mL | < 1 µg/mL | < 1 µg/mL | – |
| CCOC(=O)NC(=O)c1ccsc1NC(=O)c1nc2ccccc2s1 [Compound 1] | – | – | > 50 µg/mL | > 25 µg/mL | > 50 µg/mL | 1 to 3 µg/mL (≈ 2.66 to 7.99 µM) | 1 to 3 µg/mL (≈ 2.66 to 7.99 µM) | – |
| CCOC(=O)NC(=O)c1ccsc1NC(=O)c1ccc2sc(C)nc2c1 [Compound 10] | – | – | 25 to 50 µg/mL (≈ 64.2 to 128 µM) | – | > 50 µg/mL | < 1 µg/mL | < 1 µg/mL | – |
| CCOC(=O)NC(=O)c1ccsc1NC(=O)c1cn2ccccc2n1 [Compound 76] | – | – | > 50 µg/mL | < 5 µg/mL | > 50 µg/mL | 1 to 3 µg/mL (≈ 2.79 to 8.37 µM) | > 3 µg/mL | – |
| CCOC(=O)NC(=O)c1ccsc1NC(=O)c1nc2ccc(Cl)cc2[nH]1 [Compound 72] | – | – | > 50 µg/mL | 5 to 25 µg/mL (≈ 12.7 to 63.6 µM) | > 50 µg/mL | 1 to 3 µg/mL (≈ 2.55 to 7.64 µM) | > 3 µg/mL | – |
| NNC(=O)c1ccncc1 [INH, isoniazid] | – | 0.2 µg/mL (≈ 1.46 µM) | – | – | – | – | – | comparable drop in CFU over the first seven days |
| CCOC(=O)NC(=O)c1ccsc1NC(=O)c1nc2cc(F)ccc2s1 [Compound 53] | – | – | < 25 µg/mL | – | 25 to 50 µg/mL (≈ 63.5 to 127 µM) | < 1 µg/mL | < 1 µg/mL | – |
